Experimental data as given in PubChem BioAssay (NCI).
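How tested: cells in 96-well plates exposed to compound for 48 hours at five concentrations. GI50 is the concentration that inhibits growth by half. Definition used: TGI = concentration required for complete inhibition of growth.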

Columns and labels:
Experiment in all cases: inhibition of tumour cell growth, NCI panel, 48 h
UACC-257 melanoma = test system: UACC-257 melanoma
MOLT-4 leukemia = test system: MOLT-4 leukemia
CAKI-1 renal = test system: CAKI-1 renal
U251 CNS = test system: U251 CNS
SK-OV-3 ovarian = test system: SK-OV-3 ovarian
SN12C renal = test system: SN12C renal
DLD-1 colon = test system: DLD-1 colon
SW-620 colon = test system: SW-620 colon
LXFL 529 NSCLC = test system: LXFL 529 NSCLC
SK-MEL-5 melanoma = test system: SK-MEL-5 melanoma

Compound	TGI (UACC-257 melanoma)	TGI (MOLT-4 leukemia)	TGI (CAKI-1 renal)	TGI (U251 CNS)	TGI (SK-OV-3 ovarian)	TGI (SN12C renal)	TGI (DLD-1 colon)	TGI (SW-620 colon)	TGI (LXFL 529 NSCLC)	TGI (SK-MEL-5 melanoma)	GI50 (UACC-257 melanoma)	GI50 (MOLT-4 leukemia)	GI50 (CAKI-1 renal)	GI50 (U251 CNS)	GI50 (SK-OV-3 ovarian)	GI50 (SN12C renal)	GI50 (DLD-1 colon)	GI50 (SW-620 colon)	GI50 (LXFL 529 NSCLC)	GI50 (SK-MEL-5 melanoma)
CC1(C)COC2C(N(Cc3ccccc3)Cc3ccccc3)C(=O)N21 (centres undefined)	> 100 µM	> 100 µM	> 100 µM	70.8 µM	66.1 µM	> 100 µM	> 100 µM	> 100 µM	> 100 µM	> 100 µM	–	–	–	–	–	–	–	–	–	–
CC1=Nc2ccccc2SC(c2c(Cl)cccc2Cl)C1 (centres undefined)	3.3 µM	12.4 µM	5.3 µM	1.14 µM	6.44 µM	2.7 µM	1.42 µM	1.34 µM	1.69 µM	3.06 µM	–	–	–	–	–	–	–	–	–	–
CC1CC2(S(=O)(=O)c3ccccc3)ON1CC2S(=O)(=O)c1ccccc1 (centres undefined)	> 100 µM	> 100 µM	> 100 µM	> 100 µM	> 100 µM	> 100 µM	> 100 µM	> 100 µM	> 100 µM	–	–	–	–	–	–	–	–	–	–	–
COC(=O)C(=O)C(CC(=O)Nc1ccc(C)cc1)C(=O)OC (centres undefined)	> 100 µM	> 100 µM	> 100 µM	> 100 µM	> 100 µM	> 100 µM	> 100 µM	> 100 µM	> 100 µM	> 100 µM	–	–	–	–	–	–	–	–	–	–
CN/N=C(/c1nc2ccc([N+](=O)[O-])cc2[nH]c1=O)C(O)c1ccc(C(O)/C(=N\NC)c2nc3ccc([N+](=O)[O-])cc3[nH]c2=O)cc1 (centres undefined)	> 100 µM	> 100 µM	> 100 µM	> 100 µM	> 100 µM	–	> 100 µM	> 100 µM	> 100 µM	> 100 µM	–	–	–	–	–	–	–	–	–	–
CCCC(=O)N[C@H]1CCc2cc(OC)c(OC)c(OC)c2-c2ccc(SC)c(=O)cc21	> 74.1 µM	> 66.2 µM	14.1 µM	3.74 µM	5.75 µM	> 91.8 µM	> 100 µM	> 100 µM	> 100 µM	< 0.0989 µM	–	–	–	–	–	–	–	–	–	–
COc1ccc(/C=C2\CCC(CCN(C)C)(C3=CCCC3)C2=O)cc1 (centres undefined)	30.8 µM	51 µM	22.8 µM	30.4 µM	–	40.5 µM	79.2 µM	31 µM	30.4 µM	30.3 µM	–	–	–	–	–	–	–	–	–	–
O=C1c2ccccc2C(=O)C12CCc1ccccc12	–	> 100 µM	> 100 µM	> 100 µM	> 100 µM	> 100 µM	> 100 µM	> 100 µM	> 100 µM	–	–	–	–	–	–	–	–	–	–	–
COC(=O)C(C(=O)C(=O)Nc1ccc(C)cc1C)c1csc(-n2nc(-c3ccccc3)cc2-c2ccccc2)n1 (centres undefined)	> 100 µM	> 100 µM	> 100 µM	> 100 µM	> 100 µM	> 100 µM	> 100 µM	> 100 µM	> 100 µM	–	–	–	–	–	–	–	–	–	–	–
N=c1c2ccccc2sc2nc3ccccc3n12	> 100 µM	> 100 µM	> 100 µM	> 100 µM	> 100 µM	> 100 µM	> 100 µM	> 100 µM	> 100 µM	> 100 µM	–	–	–	–	–	–	–	–	–	–
C=C1C(=O)C23[C@H](O)C1CC[C@H]2[C@]12COC3(O)[C@@H](O)[C@@H]1C(C)(C)CC[C@@H]2O	29.5 µM	33.1 µM	4.89 µM	18.9 µM	31 µM	35.3 µM	25.1 µM	4.86 µM	2.56 µM	28.6 µM	–	–	–	–	–	–	–	–	–	–
CC(=O)c1ccc(NC(=O)C(=O)C(C(=O)/C=C/c2ccccc2)C2OC(=O)c3ccccc32)cc1 (centres undefined)	> 100 µM	> 100 µM	> 100 µM	> 100 µM	> 100 µM	> 100 µM	> 100 µM	> 100 µM	> 100 µM	> 100 µM	–	–	–	–	–	–	–	–	–	–
CC(=O)OC(C(=O)[O][Sn]([CH3])([CH3])[CH3])c1ccccc1 (centres undefined)	> 100 µM	> 100 µM	> 100 µM	> 100 µM	> 100 µM	> 100 µM	> 100 µM	> 100 µM	> 100 µM	> 100 µM	> 100 µM	> 100 µM	> 100 µM	> 100 µM	> 100 µM	> 100 µM	> 100 µM	> 100 µM	99.5 µM	> 100 µM
CCOc1ccc(N=C(NC(=O)c2ccccc2)SC)cc1	> 100 µM	> 100 µM	> 100 µM	> 100 µM	> 100 µM	> 100 µM	> 100 µM	> 100 µM	> 100 µM	> 100 µM	–	–	–	–	–	–	–	–	–	–
COC/N=C(\NC#N)NCOC	> 100 µM	> 100 µM	> 100 µM	> 100 µM	> 100 µM	> 100 µM	> 100 µM	> 59.7 µM	> 100 µM	> 100 µM	–	–	–	–	–	–	–	–	–	–
COc1ccccc1-c1cc(=O)c2cc(C)c(C)c(C(=O)O)c2o1	> 100 µM	> 100 µM	–	> 100 µM	> 100 µM	> 100 µM	> 100 µM	> 100 µM	> 100 µM	> 100 µM	–	–	–	–	–	–	–	–	–	–
COc1ccc(/C=C(\NC(=O)c2ccccc2)c2nc3ccccc3[nH]2)cc1OC	> 100 µM	> 100 µM	> 100 µM	> 100 µM	> 100 µM	> 100 µM	> 100 µM	> 100 µM	> 100 µM	> 100 µM	–	–	–	–	–	–	–	–	–	–
CCOc1ccc(N=C2NC(=O)C(CC(=O)Nc3ccccc3[N+](=O)[O-])S2)cc1 (centres undefined)	> 100 µM	> 100 µM	> 100 µM	> 100 µM	–	> 100 µM	> 100 µM	> 100 µM	> 100 µM	> 100 µM	–	–	–	–	–	–	–	–	–	–
O=C1CCC2(c3ccccc3)Nc3ccccc3N12 (centres undefined)	> 100 µM	> 100 µM	> 100 µM	> 100 µM	–	> 100 µM	> 100 µM	> 100 µM	> 100 µM	> 100 µM	–	–	–	–	–	–	–	–	–	–
CCOc1cccc2c1N[S@@](=O)S2	> 100 µM	> 100 µM	> 100 µM	> 100 µM	> 100 µM	> 100 µM	> 100 µM	> 100 µM	> 100 µM	–	–	–	–	–	–	–	–	–	–	–
CCC1=CCN(c2cc(C)ccn2)OC1c1ccccc1 (centres undefined)	> 100 µM	> 100 µM	> 100 µM	46.2 µM	> 100 µM	> 100 µM	> 100 µM	> 100 µM	> 100 µM	–	–	–	–	–	–	–	–	–	–	–
COc1cc2c(c3c1c(=O)c1ccccc1n3C)C=CC(C)(C)O2	> 100 µM	> 100 µM	> 100 µM	> 100 µM	> 100 µM	> 100 µM	> 100 µM	> 100 µM	> 100 µM	> 100 µM	–	–	–	–	–	–	–	–	–	–
